Patent US8945856B2, “Affinity-based detection of biological targets” (priority 2005, dated 2015)

Columns and labels:
[1] = test system: E. coli; format: binding
[2] = molecular target: botulinum toxoid A (Clostridium botulinum, UniProt P0DPI0); format: binding
[3] = test system: E. coli cells; conditions: total analysis time 2.5 hours; cited from earlier work
[4] = test system: heat-killed E. coli O157:H7 cells; test: Array Biosensor direct assay: Cy5-labeled cells binding to immobilized magainin; conditions: magainin I covalently (directly) immobilized via GMBS
[5] = test system: heat-killed S. typhimurium cells; test: as above
[6] = test system: Campylobacter sp.; test: Array Biosensor binding to directly immobilized magainin; conditions: analogous conditions
[7] = test system: Bacillus sp.; test: as above; conditions: analogous conditions
[8] = test system: Salmonella; format: binding
[9] = test system: E. coli lipopolysaccharide (LPS); test: Fiber optic biosensor 5-minute competitive assay with polymyxin B as capture molecule (James et al.); format: binding; conditions: assuming LPS monomer 4-20 kDa and 1.2×10^6 LPS molecules per cell
[10] = test system: E. coli lipopolysaccharide (LPS); conditions: 5-minute competitive assays; cited from earlier work

Sequence of botulinum toxoid A (P0DPI0 whole entry, looked up): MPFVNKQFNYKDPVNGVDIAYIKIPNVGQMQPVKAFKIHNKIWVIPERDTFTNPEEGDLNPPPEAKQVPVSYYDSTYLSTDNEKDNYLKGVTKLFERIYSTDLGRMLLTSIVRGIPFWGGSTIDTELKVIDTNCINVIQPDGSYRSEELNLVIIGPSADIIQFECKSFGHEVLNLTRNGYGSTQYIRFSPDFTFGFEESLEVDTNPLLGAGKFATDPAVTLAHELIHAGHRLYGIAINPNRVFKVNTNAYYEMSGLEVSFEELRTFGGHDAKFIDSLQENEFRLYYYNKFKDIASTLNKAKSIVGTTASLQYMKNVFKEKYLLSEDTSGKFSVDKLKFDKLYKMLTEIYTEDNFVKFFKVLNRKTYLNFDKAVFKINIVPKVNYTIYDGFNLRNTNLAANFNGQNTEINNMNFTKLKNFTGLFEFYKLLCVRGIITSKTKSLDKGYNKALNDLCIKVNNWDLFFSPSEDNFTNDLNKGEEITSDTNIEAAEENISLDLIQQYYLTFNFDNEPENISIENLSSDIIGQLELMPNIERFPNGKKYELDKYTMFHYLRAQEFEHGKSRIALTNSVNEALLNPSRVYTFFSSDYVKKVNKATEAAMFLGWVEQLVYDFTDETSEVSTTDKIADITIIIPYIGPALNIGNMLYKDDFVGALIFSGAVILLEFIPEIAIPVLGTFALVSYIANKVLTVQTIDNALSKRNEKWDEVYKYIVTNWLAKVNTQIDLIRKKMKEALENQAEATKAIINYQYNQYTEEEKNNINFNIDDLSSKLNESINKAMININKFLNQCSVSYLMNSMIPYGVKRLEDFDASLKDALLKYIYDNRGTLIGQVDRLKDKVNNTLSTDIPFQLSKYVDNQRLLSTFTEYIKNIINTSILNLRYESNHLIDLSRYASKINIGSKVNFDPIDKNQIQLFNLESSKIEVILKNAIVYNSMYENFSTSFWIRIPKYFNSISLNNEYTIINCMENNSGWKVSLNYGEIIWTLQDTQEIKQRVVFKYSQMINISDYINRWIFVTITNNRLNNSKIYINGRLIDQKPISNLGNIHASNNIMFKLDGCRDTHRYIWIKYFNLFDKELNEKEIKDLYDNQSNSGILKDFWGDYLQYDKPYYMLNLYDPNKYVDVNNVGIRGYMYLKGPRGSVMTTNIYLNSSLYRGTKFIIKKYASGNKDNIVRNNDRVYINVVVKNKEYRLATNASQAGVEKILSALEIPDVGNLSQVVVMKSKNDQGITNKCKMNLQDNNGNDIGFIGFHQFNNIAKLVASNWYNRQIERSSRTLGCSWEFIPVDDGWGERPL

In the case of Bactenecin, the “LOD for E. coli” value [1] is reported as 10^2-10^3 cfu/ml.
With “Cecropin A (KWKLFKKIEKVGQNIRDGIIKAGPAVAVVGQATQIAK)” the “Binding of botulinum toxoid to immobilized capture species” value (from here on “Binding of botulinum toxoid”) [2] was “bound”, the “Estimated limit of detection compared with antibody-based assays” value [2] was “significantly lower” and the “Preferential binding, toxoid A versus toxoid B” value [2] was “bound preferentially by toxoid A”.
For “Cecropin P1 (SWLSKTAKKLENSAKKRISEGIAIAIQGGPR; Cecropin-P1; UniProt P14661 14-44, looked up)”, the “Detection limit for E. coli” value [3] is given as ~10^7 cfu/mL.
In the case of “Magainin I (GIGKFLHSAGKFGKAFVGEIMKS; listed as Xenopus laevis)”, the “Detection limit for labelled E. coli” value [4] is reported as 1.6×10^5 cell/mL, the “Detection limit for labelled S. typhimurium” value ([5]; magainin I covalently (directly) immobilized via GMBS, Cy5-labeled heat-killed cells) is reported as 6.5×10^4 cell/mL and the “Concentration in solution during immobilization step at which bacterial binding saturated” value ([5]; patterning solution, target bacteria) is reported as 0.4 mM. The “Binding of botulinum toxoid” value [2] was “not”, the “Binding of Campylobacter sp.” value [6] was “only trace binding” and the “Binding of Bacillus sp.” value [7] was “only trace binding”.
For Polymyxin B, the “Binding of botulinum toxoid” value [2] was “less strongly”, the “LOD for Salmonella” value [8] was 10^5 cfu/ml and the “Detection limit calculated as number of bacteria per mL” value [9] was 3×10^5-1.3×10^6 cells/mL. The “Detection limit for E. coli LPS” value [10] was “approx. 10 ng/mL”.
